Data taken from publication PMC13058460, “PET-MRI biomarkers reveal efficacy of a novel NLRP3 inhibitor in Parkinson’s disease models” (Brain, 2025).
Where two headings read alike, the source gives them in different places.

What was measured:
NLRC4 inflammasome = target: T1, NLRC4 inflammasome (Mus musculus, UniProt Q3UP24); assay: NLRC4 inflammasome activation by S. typhimurium in bone marrow macrophages; assay type: cell-based; settings: C57BL/6J bone marrow macrophages stimulated with S. typhimurium; n=2
T1 construct: marrow cells were isolated from C57BL/6J mice and cultured macrophages stimulated with S; endogenous in cells; host or cells: bone-marrow-derived macrophages from C57BL/6J mice
T1 sequence (Q3UP24 whole entry): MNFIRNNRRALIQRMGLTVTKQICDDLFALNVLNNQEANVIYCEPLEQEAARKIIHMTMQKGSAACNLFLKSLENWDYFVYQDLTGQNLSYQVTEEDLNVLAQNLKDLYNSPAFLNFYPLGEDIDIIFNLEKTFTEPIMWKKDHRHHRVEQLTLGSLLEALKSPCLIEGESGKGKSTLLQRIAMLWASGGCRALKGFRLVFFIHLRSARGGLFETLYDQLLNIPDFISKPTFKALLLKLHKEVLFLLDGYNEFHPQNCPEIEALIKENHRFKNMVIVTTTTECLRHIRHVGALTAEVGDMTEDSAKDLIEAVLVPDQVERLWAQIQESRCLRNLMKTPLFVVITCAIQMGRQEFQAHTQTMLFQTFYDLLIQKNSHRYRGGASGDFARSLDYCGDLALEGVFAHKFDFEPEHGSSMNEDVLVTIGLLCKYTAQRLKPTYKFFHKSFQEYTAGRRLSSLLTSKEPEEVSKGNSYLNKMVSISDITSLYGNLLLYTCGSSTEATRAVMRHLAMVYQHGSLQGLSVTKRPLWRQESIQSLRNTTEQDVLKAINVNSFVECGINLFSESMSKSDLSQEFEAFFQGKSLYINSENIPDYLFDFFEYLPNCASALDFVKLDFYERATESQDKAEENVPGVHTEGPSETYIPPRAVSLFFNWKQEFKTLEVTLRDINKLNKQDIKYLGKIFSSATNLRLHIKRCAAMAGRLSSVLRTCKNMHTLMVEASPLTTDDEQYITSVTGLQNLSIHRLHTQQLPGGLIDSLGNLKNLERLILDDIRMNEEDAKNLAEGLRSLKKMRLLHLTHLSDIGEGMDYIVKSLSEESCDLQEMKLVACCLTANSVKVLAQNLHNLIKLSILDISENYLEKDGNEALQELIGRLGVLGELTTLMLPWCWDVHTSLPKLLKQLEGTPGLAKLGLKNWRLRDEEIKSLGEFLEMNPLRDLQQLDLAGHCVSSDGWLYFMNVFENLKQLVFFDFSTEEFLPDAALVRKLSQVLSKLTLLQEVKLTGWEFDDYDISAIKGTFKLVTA
Text: (§1) marrow cells were isolated from C57BL/6J mice and cultured macrophages stimulated with S.
(§2) typhimurium (S.typ) and poly(dA:dT) to activate [A] NLRC4 and [B] AIM2 inflammasomes. No […]

AIM2 inflammasome = target: T2, AIM2 inflammasome (Mus musculus, UniProt Q91VJ1); assay: AIM2 inflammasome activation by poly(dA:dT) in bone marrow macrophages; assay type: cell-based; settings: C57BL/6J bone marrow macrophages stimulated with poly(dA:dT); n=2
T2 construct: marrow cells were isolated from C57BL/6J mice and cultured macrophages stimulated with S; endogenous in cells; host or cells: bone-marrow-derived macrophages from C57BL/6J mice
T2 sequence (Q91VJ1 1-354): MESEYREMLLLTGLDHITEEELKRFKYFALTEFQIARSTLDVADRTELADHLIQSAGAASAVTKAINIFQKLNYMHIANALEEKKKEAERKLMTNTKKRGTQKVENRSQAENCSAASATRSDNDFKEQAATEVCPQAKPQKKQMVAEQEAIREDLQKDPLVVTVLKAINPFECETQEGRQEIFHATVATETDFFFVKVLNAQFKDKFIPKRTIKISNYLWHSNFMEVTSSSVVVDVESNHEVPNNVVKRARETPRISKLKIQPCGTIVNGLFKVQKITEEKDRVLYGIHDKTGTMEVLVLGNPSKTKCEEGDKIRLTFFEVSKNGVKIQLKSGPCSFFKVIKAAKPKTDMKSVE
Text: as §1, §2

[1] = tested on: 95 targets (Eurofins Cerep panel); assay: Off-target screen, Eurofins Cerep panel (binding, enzyme and uptake assays); settings: 10uM
Description: (10uM) was screened for inhibition or activation activities at 95 targets (Eurofins Cerep panel) in
binding and enzyme and uptake assays. […]

[2] = Single-dose pharmacokinetics (plasma and brain) in C57BL/6J mice; assay type: in vivo, mouse; settings: for Tolerability in single-dose pharmacokinetic studies: fasted male C57BL/6J mice, i.v. 4 mg/kg or oral 20 mg/kg; for bioavailability / Oral half-life: plasma; for bioavailability: oral, p.o. 20 mg/kg vs i.v. 4 mg/kg; for Oral half-life: p.o. 20 mg/kg
[3] = tested on: 6-OHDA Parkinson's mouse model; assay: 6-OHDA mouse model, PET/MRI imaging study with MCC7840 in drinking water; assay type: in vivo; settings: 0.3 mg/ml in drinking water
Description: (§3) The Supplementary material contains detailed treatment regimens.
(§4) Blood was collected in ethylenediaminetetraacetic acid (EDTA) tubes, plasma aliquoted and stored at −80°C. IL-1β was quantified by ELISA (R&D Systems). Extended methods are in the Supplementary material.
On Days 24–28 post-surgery, mice underwent PET/MRI with ^18F-DPA-714 (Day 24), ^18F-FBCTT (Day 26) and ^18F-FDOPA (Day 28) to assess microglial activation, dopamine transporter function and presynaptic dopamine synthesis, respectively. Standardized uptake value ratios (SUVRs) were calculated as ipsilateral/contralateral striatum ratios. Detailed acquisition and analysis methods are provided in the Supplementary material.
The microglial IC50 and IC90 values are shown with dotted lines. (B) Schematic of the 6-OHDA imaging study [created in BioRender. […] (C) Amphetamine-induced ipsilateral rotations at Day 17. (D–F) Structures of ^18F-DPA-714, ^18F-FBCTT and ^18F-FDOPA. […] (H) Time-activity curves for ^18F-DPA-714 generated from dynamic imaging and presented as standard uptake value ratio from ipsilateral to contralateral hemispheres (standardized uptake value ratio, SUV-ratios). The 60 min imaging time point is shown on the right. (I) Representative brain PET/MRI images and (J) quantitative SUV-ratios for ^18F-FBCTT. […] (K) Representative brain PET/MRI images and (L) quantitative SUV-ratios for ^18F-FDOPA. […] (M–O) MRI blood–brain barrier leakage measurement of gadolinium T1 relaxation time values in ipsilateral (M) and contralateral (N) hemispheres and expressed as a ratio (O). (P) Plasma IL-1β concentrations in mice at Day 28. […] SUV-BW = standard uptake value corrected for body weight.
To perform PET imaging, the same mouse was intravenously administered three radiotracers at sequential time points: ^18F-DPA-714 at Day 24 to label TSPO and neuroinflammation (Fig. 5D), ^18F-FBCTT at Day 26 to label dopamine transporter (DAT) availability (Fig. 5E)[42] and ^18F-FDOPA at Day 28 to label dopamine uptake (Fig. 5F),[43] following 6-OHDA or saline injection. At each time point, mice were anaesthetized and imaged using PET/MRI to visualize radiotracer uptake in the brains of living mice (Fig. 5B).
DOPA and F-rac-DOPA. Chiral HPLC method: Daicel Crownpak CR+ (4.0 × 150mm x 5µm, Part No. 27714), Flow rate = 0.8ml/min with 100% (perchloric acid pH 2.0).
PET/MRI imaging in the 6-OHDA model
Twenty-four days post-surgery, mice from each experimental group were injected with a radiotracer every second day in a group of 3-4 mice per imaging week. Three different radiotracers were used on three different days. [18F]DPA-714 (24th day post-surgery) was used to target the translocator protein, TSPO, overexpressed in activated microglia during neuroinflammation. […]

PFF-Syn mouse model = assay: PFF-Syn Parkinson's disease mouse model, preventative and therapeutic dosing in drinking water; assay type: in vivo
Description: Recombinant human α-synuclein (rPeptide) was incubated in PBS at 37°C, 400 rpm, for 7 days with daily sonication cycle. Fibril formation was validated by transmission electron microscopy (TEM) and Thioflavin T fluorescence.[34],[35]
as §3, §4
Mice traversed a 0.5 cm × 1 m beam apparatus; latency to cross was measured at 4, 6, 8 and 10 months post-PFF-Syn.
Accelerated rotarod (5–40 rpm over 5 min) assessed latency to fall at 4, 6, 8 and 10 months post-PFF-Syn as previously described.[17],[18]
At 11 months post-PFF injection, mice were scanned with ^18F-DPA-714 PET/MRI. Regions of interest (ROIs) were anatomically defined in striatum using MRI guidance. SUVRs and T1 relaxation times were calculated. Extended imaging parameters are in the Supplementary material.
(A) Schematic of the PFF-Syn study [created in BioRender. […] (B–E) Rotarod and (F–I) balance-beam testing of mice at 4, 6, 8 and 10 months post PFF-Syn or saline injection (n = 8–10/group). […] (K) Time-activity curves for ^18F-DPA-714 generated from dynamic imaging and presented as standard uptake value ratio (SUV-ratio) from ipsilateral to contralateral hemispheres (n = 4–8/group). (L) Sixty minute SUV-ratio time point for data in L. (M) Representative autoradiography images for ^18F-DPA-714 from brain slices taken following PET imaging. (N) Quantitation of ^18F-DPA-714 autoradiography, and blockade of signal with PK11195. (O) Representative immunohistochemistry for microglial marker ionized calcium-binding adaptor molecule 1 (Iba1; green) from brain slices taken following PET imaging; cell nuclei 4′,6-diamidino-2-phenylindole (DAPI; blue). Square dotted line box in M represents approximate region imaged; magnification ×40, scale bars = 20 μm. (P) Ipsilateral striatal dopamine quantitation, and (Q) plasma interleukin (IL)-1β concentrations in mice after completion of PET imaging experiments (n = 4–8/group).

healthy subjects = tested on: healthy subjects; set-up: method as in NCT04015076; settings: randomized, double-blinded, placebo-controlled, single and multiple ascending dose, ref NCT04015076; cited from earlier work
CYP1A2 = target: T3, CYP1A2 (Homo sapiens, UniProt P05177); assay: CYP1A2 inhibition
T3 sequence (P05177 1-516): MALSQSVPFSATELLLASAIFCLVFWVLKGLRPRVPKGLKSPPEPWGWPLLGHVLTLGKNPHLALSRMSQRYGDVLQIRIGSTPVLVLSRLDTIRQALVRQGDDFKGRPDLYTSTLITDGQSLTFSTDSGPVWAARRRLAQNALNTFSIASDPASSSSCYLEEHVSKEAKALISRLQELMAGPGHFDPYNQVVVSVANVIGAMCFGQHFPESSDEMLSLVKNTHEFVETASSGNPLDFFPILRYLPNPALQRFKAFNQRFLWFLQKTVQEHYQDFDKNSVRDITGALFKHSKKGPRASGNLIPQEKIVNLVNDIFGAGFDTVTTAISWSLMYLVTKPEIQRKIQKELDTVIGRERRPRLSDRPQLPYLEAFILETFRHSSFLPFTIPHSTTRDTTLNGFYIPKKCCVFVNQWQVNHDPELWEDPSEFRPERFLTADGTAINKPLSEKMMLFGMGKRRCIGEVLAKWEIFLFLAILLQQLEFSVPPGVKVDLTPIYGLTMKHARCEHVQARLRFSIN

CYP2C9 = CYP2C9 (Homo sapiens, UniProt P11712); assay: CYP2C9 inhibition
CYP2C9, sequence (P11712 whole entry): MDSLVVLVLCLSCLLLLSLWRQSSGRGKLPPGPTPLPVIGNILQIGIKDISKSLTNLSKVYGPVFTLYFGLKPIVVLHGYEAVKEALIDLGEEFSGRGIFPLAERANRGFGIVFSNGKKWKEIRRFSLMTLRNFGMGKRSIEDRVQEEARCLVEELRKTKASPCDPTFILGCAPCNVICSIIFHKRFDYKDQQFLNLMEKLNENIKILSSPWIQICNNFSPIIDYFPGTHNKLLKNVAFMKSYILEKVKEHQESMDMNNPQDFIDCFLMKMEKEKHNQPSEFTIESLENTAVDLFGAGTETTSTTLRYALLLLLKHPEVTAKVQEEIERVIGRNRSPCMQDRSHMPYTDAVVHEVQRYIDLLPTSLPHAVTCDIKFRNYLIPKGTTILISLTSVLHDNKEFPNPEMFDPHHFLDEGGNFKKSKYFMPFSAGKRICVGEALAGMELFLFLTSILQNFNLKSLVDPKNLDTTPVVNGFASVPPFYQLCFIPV
Description: (§5) LM – Liver microsome (half-life in minutes)
PPB – Plasma Protein Binding
(§6) PS – Plasma Stability (% remaining at 2 hours)

CYP2D6 = CYP2D6 (Homo sapiens, UniProt P10635); assay: CYP2D6 inhibition
CYP2D6, sequence (P10635 whole entry): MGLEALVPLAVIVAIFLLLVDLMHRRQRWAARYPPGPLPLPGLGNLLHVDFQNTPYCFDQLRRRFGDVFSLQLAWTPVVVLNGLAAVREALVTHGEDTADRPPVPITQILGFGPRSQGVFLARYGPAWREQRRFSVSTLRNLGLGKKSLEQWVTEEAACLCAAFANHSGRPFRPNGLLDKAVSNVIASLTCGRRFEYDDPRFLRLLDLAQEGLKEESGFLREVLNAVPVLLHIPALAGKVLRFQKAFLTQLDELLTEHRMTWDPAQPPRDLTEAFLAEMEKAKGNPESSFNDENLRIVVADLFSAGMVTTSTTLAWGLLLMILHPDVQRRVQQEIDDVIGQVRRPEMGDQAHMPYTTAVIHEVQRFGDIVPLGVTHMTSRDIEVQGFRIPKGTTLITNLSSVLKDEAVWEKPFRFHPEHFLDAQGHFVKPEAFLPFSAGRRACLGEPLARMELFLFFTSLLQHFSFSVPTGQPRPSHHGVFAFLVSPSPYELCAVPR
Description: as §5
PPB – Plasma Protein Binding
as §6

CYP3A4 = CYP3A4 (Homo sapiens, UniProt P08684); assay: CYP3A4 inhibition
CYP3A4, sequence (P08684 whole entry): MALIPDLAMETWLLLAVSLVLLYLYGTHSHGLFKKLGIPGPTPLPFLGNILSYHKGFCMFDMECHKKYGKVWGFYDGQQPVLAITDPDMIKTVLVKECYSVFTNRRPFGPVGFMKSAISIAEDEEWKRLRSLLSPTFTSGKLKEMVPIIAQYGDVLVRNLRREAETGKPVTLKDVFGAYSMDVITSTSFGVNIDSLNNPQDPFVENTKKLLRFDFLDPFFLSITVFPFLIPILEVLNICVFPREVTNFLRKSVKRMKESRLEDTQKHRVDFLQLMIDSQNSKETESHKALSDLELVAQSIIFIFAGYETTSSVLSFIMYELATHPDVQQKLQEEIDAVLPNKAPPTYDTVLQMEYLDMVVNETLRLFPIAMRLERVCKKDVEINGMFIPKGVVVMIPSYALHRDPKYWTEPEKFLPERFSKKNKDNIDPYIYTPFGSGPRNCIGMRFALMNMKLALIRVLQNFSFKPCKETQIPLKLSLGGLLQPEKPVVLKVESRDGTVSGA
Description: as §5
PPB – Plasma Protein Binding
as §6

[4] = target: hERG (human ether-a-go-go K+ ion channel) (Homo sapiens, UniProt Q12809); assay: hERG QPatch assay
hERG (human ether-a-go-go K+ ion channel), sequence (Q12809 whole entry): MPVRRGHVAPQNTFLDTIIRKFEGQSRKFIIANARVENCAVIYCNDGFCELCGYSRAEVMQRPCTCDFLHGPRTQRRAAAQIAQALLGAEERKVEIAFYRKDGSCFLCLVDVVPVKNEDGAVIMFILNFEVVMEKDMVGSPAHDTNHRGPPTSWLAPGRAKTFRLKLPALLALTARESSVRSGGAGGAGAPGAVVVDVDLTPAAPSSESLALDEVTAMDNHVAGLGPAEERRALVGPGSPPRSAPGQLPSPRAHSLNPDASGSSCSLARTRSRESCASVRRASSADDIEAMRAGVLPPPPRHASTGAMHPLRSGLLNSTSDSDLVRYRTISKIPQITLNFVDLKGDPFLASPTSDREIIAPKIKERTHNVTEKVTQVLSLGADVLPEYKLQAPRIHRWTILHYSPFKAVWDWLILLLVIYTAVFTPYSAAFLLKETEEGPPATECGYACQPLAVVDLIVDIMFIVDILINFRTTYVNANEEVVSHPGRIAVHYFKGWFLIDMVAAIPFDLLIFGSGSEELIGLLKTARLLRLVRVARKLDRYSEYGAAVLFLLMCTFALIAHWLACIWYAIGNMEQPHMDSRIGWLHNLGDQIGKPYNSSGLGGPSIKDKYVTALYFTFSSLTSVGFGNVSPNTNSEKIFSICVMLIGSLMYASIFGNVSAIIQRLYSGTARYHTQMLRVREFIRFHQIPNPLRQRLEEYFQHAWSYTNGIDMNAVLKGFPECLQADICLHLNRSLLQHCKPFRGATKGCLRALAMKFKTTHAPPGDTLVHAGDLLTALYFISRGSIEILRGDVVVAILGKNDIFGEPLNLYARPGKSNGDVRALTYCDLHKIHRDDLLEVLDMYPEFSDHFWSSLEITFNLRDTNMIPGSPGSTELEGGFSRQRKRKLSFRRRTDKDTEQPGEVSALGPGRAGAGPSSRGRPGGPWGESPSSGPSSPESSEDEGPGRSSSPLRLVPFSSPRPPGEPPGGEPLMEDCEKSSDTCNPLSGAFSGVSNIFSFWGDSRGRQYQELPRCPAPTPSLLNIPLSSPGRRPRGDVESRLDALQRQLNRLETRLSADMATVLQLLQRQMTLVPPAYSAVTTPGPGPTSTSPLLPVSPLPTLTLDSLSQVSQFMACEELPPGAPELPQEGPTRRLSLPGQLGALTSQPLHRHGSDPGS
Description: as §5
PPB – Plasma Protein Binding
as §6

Human plasma stability = settings: % remaining at 2 hours
Description: as §5
PPB – Plasma Protein Binding
as §6

Mouse plasma stability = settings: % remaining at 2 hours
Description: as §5
PPB – Plasma Protein Binding
as §6

[5] = Human plasma protein binding
Description: as §5
PPB – Plasma Protein Binding
as §6

[6] = Mouse plasma protein binding
Description: as §5
PPB – Plasma Protein Binding
as §6

[7] = Human liver microsome stability; settings: liver microsomes
Description: as §5
PPB – Plasma Protein Binding
as §6

[8] = Mouse liver microsome stability; settings: liver microsomes
Description: as §5
PPB – Plasma Protein Binding
as §6

[9] = tested on: 6-OHDA Parkinson's mouse model; assay: 6-OHDA Parkinson's mouse model, oral gavage dose response (rotations, striatal dopamine); settings: for ED50: Mus musculus
Description: 6-hydroxydopamine (6-OHDA; Sigma) was dissolved in saline with 0.2% ascorbic acid to a final injected dose of 12 μg as previously described.[18]
Mice received analgesics and fluids and were placed on a heat pad until recovery.
D-amphetamine (2 mg/kg) was administered either 17 or 21 days post-6-OHDA; net ipsilateral turns over 10 min were recorded.
Striatal dopamine and metabolites were quantified by LC-MS/MS as previously described.[36]
(B) Amphetamine-induced ipsilateral rotations at Day 21, and (C–E) levels of striatal dopamine, 3,4-dihydroxyphenylacetic acid (DOPAC) and homovanillic acid (HVA) 28 days following saline or 6-OHDA injection. […] Data in B–E are presented as box-whisker plot with median (line), 25th to 75th percentiles (box) and full range (whiskers) shown. **P < 0.01, ***P < 0.001 by one-way ANOVA (two-tailed), and Dunnett’s post-test comparing to untreated 6-OHDA group.
administration to fasted 8–10-week-old C57BL/6J male mice was performed using an adapted method as previously described (30). At the relevant time point following dosing, blood samples were collected for plasma and the brain perfused with PBS for 5 min; CSF was also collected from separate groups of mice. Brain homogenates were prepared from dissected brains by homogenizing total brain (0.5 g) with four volumes (2 mL) of deionized water.
C57BL/6J mice were anaesthetized using ketamine hydrochloride (100 mg/kg) and xylazine (10 mg/kg), and were placed into a stereotactic frame with nose and ear bars specially adapted for mice. A digital stereotaxic instrument was used with a 5 μL Hamilton syringe to deliver either a sterile saline solution (0.9% sodium chloride) containing 0.2% ascorbic acid, 6-hydroxydopamine (6-OHDA; 12 μg) dissolved in saline containing 0.2% ascorbic acid, α-synuclein pre-formed fibrils (PFF-Syn; 8 μg in PBS), or PBS alone, into the right dorsal striatum of mice at the following stereotaxic coordinates relative to bregma (mm): -2.0 medial-lateral, + 0.5 anterior-posterior, -3.0 mm dorsal-ventral below the pial surface. After drilling a 1 mm burr-hole in the skull, a 2 μl volume of solution was infused at the target site at the rate of 0.5 μl per minute. The needle was held in place for at least 5 minutes after injection to minimize retrograde flow along the needle tract. Mice were given a subcutaneous injection of sterile Ringer ’s solution to help facilitate recovery and carprofen (5 mg/kg) for post-operative pain relief and were placed on a heat-pad until complete recovery from anaesthesia.
8-10 week-old C57BL/6J male mice were housed under a 12-hr light cycle in a SPF climate-controlled facility with food and water provided ad libitum for two weeks prior to study initiation.
mg/kg), or by drinking water (0.3mg/ml), with studies performed at UQ or by CROs. […]

[10] = 6, 8 and 10 months, both preventative and therapeutic groups
[11] = Mouse % PPB, plasma protein binding

For `CC(C)n1ccc(S(=O)(=O)NC(=O)Nc2c3c(cc4c2CCC4)CCC3)n1` [MCC7840], the “Inhibitory activity at NLRC4 inflammasome” value (NLRC4 inflammasome) was “not active”, the “Inhibitory activity at AIM2 inflammasome” value (AIM2 inflammasome) was “not active” and the “Inhibition or activation activity at any of 95 off-targets” value [1] was no more than 35%. For the same compound, the “Tolerability in single-dose pharmacokinetic studies” value [2] was “well tolerated”, the bioavailability ([2]; male, C57BL/6J, mouse, mice) was 68% and the Kp at 2 h ([2]; male, C57BL/6J, mouse, mice, oral administration 20 mg/kg, total brain concentration, read-out: Brain-to-plasma ratio) was roughly 0.035. The Oral half-life ([2]; mice) was 5.0 h, the “Gadolinium T1 relaxation time decrease (blood-brain barrier leakage)” value [3] was “absent” and the “Loss of 18F-FBCTT signal (DAT)” value ([3]; Day 26) was “significant, but not complete protection”. For the same compound, the “6-OHDA-induced increase in plasma IL-1β” value ([3]; Day 28) was “effectively suppressed”, the “Reduced ipsilateral 18F-FDOPA signal (dopamine uptake)” value ([3]; Day 28) was “significantly protected” and the Rotarod motor deficit (PFF-Syn mouse model; 4 months post-injection, preventative (pre-PFF) group, 0.3 mg/ml drinking water) was “significantly attenuated”. The “Balance beam crossing latency” value (PFF-Syn mouse model; 4 months, pre-treated mice) was “significantly reduced”, the Balance beam performance (PFF-Syn mouse model; [10]) was “improved balance beam performance” and the “Rotarod progressive motor decline” value (PFF-Syn mouse model; [10]) was “significantly protected”. The “Striatal dopamine loss and reduced metabolite levels” value (PFF-Syn mouse model; both dosing regimens, after PET imaging) was “significantly protected”, the “18F-DPA-714 PET signal” value (PFF-Syn mouse model; both preventative and therapeutic groups, PET/MRI at 12 months (11 months in methods)) was “significantly reduced” and the “PFF-Syn-induced plasma IL-1β increase” value (PFF-Syn mouse model; preventative group) was “fully suppressed”. The “Reduction of PFF-Syn-induced plasma IL-1β” value (PFF-Syn mouse model; therapeutic group (from 4 months post-PFF)) was roughly 70%, the “Safety, tolerability and pharmacokinetics in Phase I” value (healthy subjects) was “excellent safety, tolerability and pharmacokinetic profile” and the IC50 (CYP1A2) was 19 µM. For the same compound, the IC50 (CYP2C9) was 46 µM, the IC50 (CYP2D6) was greater than 50 µM and the IC50 (CYP3A4) was greater than 50 µM. For the same compound, the inhibition at 30 µM [4] was 4.5 ± 3.1%, the “Human % PS” value (Human plasma stability) was 100% and the “Mouse % PS” value (Mouse plasma stability) was 89%. It also gave a fraction unbound [5] of 0.003, a fraction unbound [6, 11] of 0.005 and a fraction unbound ([6]; Plasma protein binding, stated in text with mouse pharmacokinetics) of less than 0.01. For the same compound, the half-life [7] was greater than 2.42 h, the half-life [8] was greater than 2.42 h and the ED50 ([9]; read-out: ED50 for dopamine loss (striatal dopamine content)) was roughly 2.2 mg/kg. For the same compound, the ED50 ([9]; read-out: ED50 for motor behaviour (amphetamine-induced ipsilateral rotations)) was roughly 0.9 mg/kg, the Amphetamine-induced rotations ([9]; all doses (1, 3, 10 mg/kg p.o. daily), Day 21) was “significantly reduced” and the “Striatal dopamine and its metabolites DOPAC and HVA” value ([9]; all treatment groups (1, 3, 10 mg/kg p.o. daily), Day 28) was “significant preservation”.

For `CC(C)(O)c1coc(S(=O)(=O)NC(=O)Nc2c3c(cc4c2CCC4)CCC3)c1` [MCC950, reference compound], the “Tolerability in single-dose pharmacokinetic studies” value [2] was “well tolerated”, the bioavailability ([2]; male, C57BL/6J, mouse, mice) was 71% and the Oral half-life ([2]; mice) was 2.4 h. The IC50 (CYP1A2) was 20 µM, the IC50 (CYP2C9) was 43 µM and the IC50 (CYP2D6) was greater than 50 µM. The IC50 (CYP3A4) was greater than 50 µM, the inhibition at 30 µM [4] was 21 ± 4.3% and the “Human % PS” value (Human plasma stability) was 96%. The “Mouse % PS” value (Mouse plasma stability) was 99%, the fraction unbound [5] was 0.005 and the fraction unbound [6, 11] was 0.006. For the same compound, the half-life [7] was greater than 2.42 h and the half-life [8] was greater than 2.42 h.
